Assay results from US10941157B2, “Pesticidal compositions and uses thereof” (Gilead Apollo, LLC, priority 2015, dated 2021).
In brackets after ≈: the same amount, converted by molar mass.

Columns and labels:
Puccinia triticina = experiment: Foliar protection test for wheat leaf rust control; type: in vivo; conditions: foliar application to wheat (Triticum aestivum cv. Winterhawk), evaluated 10 days later
Phakopsora pachyrhizi = experiment: Foliar protection test for Asian soybean rust control; type: in vivo; conditions: foliar application to soybean (Glycine max AG4832), percent disease area evaluated 14 days later
[1] = test system: Blumeria graminis f. sp. hordei; experiment: Foliar protection test for barley powdery mildew control; type: in vivo; conditions: foliar spray on Hordeum vulgare cv. Perry, inoculated 24 hours after treatment, evaluated 7 days later
Method in brief: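 Six-day-old barley (cv. Perry) sprayed to wetness on both leaf sides; 24 h later inoculated by shaking spores from infected stock plants. Kept at 20 to 22° C, 70% relative humidity; mildew colonization assessed 7 days later.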

Sphaerotheca fuliginea = experiment: Foliar protection for cucumber powdery mildew control; type: in vivo; conditions: foliar spray on Cucumis sativus cv. Straight Eight, inoculated 24 hours after treatment, evaluated 7 days later
Method in brief: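 Cucumber plants (cv. Straight Eight, 10 days old) sprayed to wetness on both leaf surfaces, then inoculated 24 h later by shaking sporulating stock plants over them. Held at 23–27 °C, 16 h light, 60% RH. Mildew colonization scored 7 days after inoculation, at compound concentrations of 10 ppm or lower.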

Fusarium graminearum = type: in vivo; conditions: spray on flowering Triticum aestivum cv. Samson, inoculated 24 hours after treatment, evaluated 14 days later
[2] = test system: Fusarium moniliforme (Fm); experiment: In vitro pathogen growth inhibition assay, Fm; type: cell-based; conditions: Fusarium verticillioides; ≥90% growth inhibition; 48 hours; vs 2% DMSO control; read-out: Compound Concentration (ppm) sufficient for ≥90% inhibition of Fm
Method in brief: (§1)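 Spores in 17% V8 liquid medium, or 1.5 mm Rs mycelial plugs in ¼ PDB, incubated with compound; final concentration checked by OD600 for precipitation. OD readings at 24 and 48 h, blank-subtracted, plus visual ratings; value is concentration giving ≥90% growth inhibition.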

[3] = test system: Fusarium virguliforme (Fv); experiment: In vitro pathogen growth inhibition assay, Fv; type: cell-based; conditions: ≥90% growth inhibition, 48 hours, vs 2% DMSO control, read-out: Compound Concentration (ppm) sufficient for ≥90% inhibition of Fv
Method in brief: (§2)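 Spores of Dm, Fv and Pc were diluted in 17% V8 liquid medium; Rs used 1.5 mm mycelial plugs in ¼ PDB. Compounds from 2.5 mg/ml DMSO stocks were combined with inoculum, growth was read by OD600 at 24 and 48 h with blank subtraction, and the reported value is the concentration giving ≥90% inhibition.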

[4] = test system: Phytophthora capsici (Pc); experiment: In vitro pathogen growth inhibition assay, Pc; type: cell-based; conditions: 48 h, ≥90% growth inhibition, 48 hours, vs 2% DMSO control, read-out: Compound Concentration (ppm) sufficient for ≥90% inhibition of Pc
Method in brief: as §2

Rhizoctonia solani (Rs) = experiment: In vitro pathogen growth inhibition assay, Rs (mycelial plugs); type: cell-based; conditions: Rhizoctonia solani, 48 h, ≥90% growth inhibition; mycelial plugs; 48 hours; vs 2% DMSO control; read-out: Compound Concentration (ppm) sufficient for ≥90% inhibition of Rs
Method in brief: as §2

Septoria tritici (St) = experiment: In vitro pathogen growth inhibition assay, St; type: cell-based; conditions: Zymoseptoria tritici, 48 h, ≥90% growth inhibition; 48 hours; vs 2% DMSO control; read-out: Compound Concentration (ppm) sufficient for ≥90% inhibition of St
Method in brief: as §1

[5] = test system: Mycosphaerella graminicola (synthetic Septoria tritici); experiment: Foliar protection test for wheat septoria leaf blotch control; type: in vivo; conditions: foliar spray on Triticum aestivum cv. WinterHawk, inoculated 1 hour after treatment, evaluated 16 days later
Diplodia maydis (Dm) = experiment: In vitro pathogen growth inhibition assay, Dm; type: cell-based; conditions: Stenocarpella maydis, 48 h, ≥90% growth inhibition; 48 hours; vs 2% DMSO control; read-out: Compound Concentration (ppm) sufficient for ≥90% inhibition of Dm
Method in brief: as §2

Botrtyis cinerea (Bc) = experiment: In vitro pathogen growth inhibition assay, Bc; type: cell-based; conditions: 48 h, ≥90% growth inhibition; 48 hours; vs 2% DMSO control; read-out: Compound Concentration (ppm) sufficient for ≥90% inhibition of Bc
Method in brief: as §1

[6] = test system: Collectotrichum graminicola (Cg); experiment: In vitro pathogen growth inhibition assay, Cg; type: cell-based; conditions: 48 h, ≥90% growth inhibition; 48 hours; vs 2% DMSO control; read-out: Compound Concentration (ppm) sufficient for ≥90% inhibition of Cg
Method in brief: as §1

## CCNC(=O)[C@@H](C)n1c(=O)c2c(C)c(-n3nccn3)sc2n(C[C@H](OCCC#N)c2cc(F)ccc2OC)c1=O [Compound I-289, (R)-2-(1-((R)-2-(2-cyanoethoxy)-2-(5-fluoro-2-methoxyphenyl)ethyl)-5-methyl-2,4-dioxo-6-(2H-1,2,3-triazol-2-yl)-1,4-dihydrothieno[2,3-d]pyrimidin-3 (2H)-yl)-N-ethylpropanamide]
Puccinia triticina
  Wheat Leaf Rust Control at a compound concentration of 10 ppm or lower: AA (≥85% control of wheat leaf rust)
Phakopsora pachyrhizi
  Asian Soybean Rust Control at a compound concentration of 25 ppm or lower: AA (≥85% control of Asian soybean rust)
[1]
  Barley Powdery Mildew Control at a compound concentration of 10 ppm or lower: AA (≥85% control of barley powdery mildew)
Sphaerotheca fuliginea
  Cucumber Powdery Mildew Control at a compound concentration of 10 ppm or lower: AA (≥85% control of cucumber powdery mildew)
Fusarium graminearum
  Wheat Fusarium Head Blight Control at a compound concentration of 25 ppm or lower: C (from 25 to 49% control of wheat fusarium head blight)
[2]
  IC90: 0.08 µg/mL (≈ 0.14 µM)
[3]
  IC90: 0.4 µg/mL (≈ 0.702 µM)
[4]
  IC90: ≥ 10 µg/mL
Rhizoctonia solani (Rs)
  IC90: 0.08 µg/mL (≈ 0.14 µM)
Septoria tritici (St)
  IC90: > 50 µg/mL
[5]
  Septoria Leaf Blotch Control at a compound concentration of 25 ppm or lower: AA (≥85% control of wheat septoria leaf blotch)
Diplodia maydis (Dm)
  IC90: 0.4 µg/mL (≈ 0.702 µM)
Botrtyis cinerea (Bc)
  IC90: 2 µg/mL (≈ 3.51 µM)
[6]
  IC90: 0.08 µg/mL (≈ 0.14 µM)

## CCNC(=O)C(C)(C)n1c(=O)c2c(C)c(-n3nccn3)sc2n(C[C@H](O)c2cc(F)ccc2OC)c1=O [Compound I-292, (R)—N-ethyl-2-(1-(2-(5-fluoro-2-methoxyphenyl)-2-hydroxyethyl)-5-methyl-2,4-dioxo-6-(2H-1,2,3-triazol-2-yl)-1,4-dihydrothieno[2,3-d]pyrimidin-3 (2H)-yl)-2-methylpropanamide]
Puccinia triticina
  Wheat Leaf Rust Control at a compound concentration of 10 ppm or lower: AA (≥85% control of wheat leaf rust)
Phakopsora pachyrhizi
  Asian Soybean Rust Control at a compound concentration of 25 ppm or lower: B (from 50 to 69% control of Asian soybean rust)
[1]
  Barley Powdery Mildew Control at a compound concentration of 10 ppm or lower: AA (≥85% control of barley powdery mildew)
Sphaerotheca fuliginea
  Cucumber Powdery Mildew Control at a compound concentration of 10 ppm or lower: AA (≥85% control of cucumber powdery mildew)
Fusarium graminearum
  Wheat Fusarium Head Blight Control at a compound concentration of 25 ppm or lower: C (from 25 to 49% control of wheat fusarium head blight)
[2]
  IC90: 0.08 µg/mL (≈ 0.151 µM)
[3]
  IC90: 0.4 µg/mL (≈ 0.754 µM)
[4]
  IC90: > 50 µg/mL
Rhizoctonia solani (Rs)
  IC90: 0.4 µg/mL (≈ 0.754 µM)
Septoria tritici (St)
  IC90: > 50 µg/mL
[5]
  Septoria Leaf Blotch Control at a compound concentration of 25 ppm or lower: B (from 50 to 69% control of wheat septoria leaf blotch)
Diplodia maydis (Dm)
  IC90: 2 µg/mL (≈ 3.77 µM)
Botrtyis cinerea (Bc)
  IC90: 2 µg/mL (≈ 3.77 µM)
[6]
  IC90: 2 µg/mL (≈ 3.77 µM)

## COc1ccc(F)cc1[C@H](Cn1c(=O)n(C(C)(C)C(=O)NC2CCC2)c(=O)c2c(C)c(-n3cccn3)sc21)OCCC#N [Compound I-307, (R)-2-(1-(2-(2-cyanoethoxy)-2-(5-fluoro-2-methoxyphenyl)ethyl)-5-methyl-2,4-dioxo-6-(1H-pyrazol-1-yl)-1,4-dihydrothieno[2,3-d]pyrimidin-3 (2H)-yl)-N-cyclobutyl-2-methylpropanamide]
Puccinia triticina
  Wheat Leaf Rust Control at a compound concentration of 10 ppm or lower: AA (≥85% control of wheat leaf rust)
Phakopsora pachyrhizi
  Asian Soybean Rust Control at a compound concentration of 25 ppm or lower: C (from 25 to 49% control of Asian soybean rust)
[1]
  Barley Powdery Mildew Control at a compound concentration of 10 ppm or lower: AA (≥85% control of barley powdery mildew)
Sphaerotheca fuliginea
  Cucumber Powdery Mildew Control at a compound concentration of 10 ppm or lower: AA (≥85% control of cucumber powdery mildew)
Fusarium graminearum
  Wheat Fusarium Head Blight Control at a compound concentration of 25 ppm or lower: C (from 25 to 49% control of wheat fusarium head blight)
[2]
  IC90: 0.08 µg/mL (≈ 0.131 µM)
[3]
  IC90: 0.4 µg/mL (≈ 0.657 µM)
[4]
  IC90: > 50 µg/mL
Rhizoctonia solani (Rs)
  IC90: 0.08 µg/mL (≈ 0.131 µM)
Septoria tritici (St)
  IC90: > 50 µg/mL
[5]
  Septoria Leaf Blotch Control at a compound concentration of 25 ppm or lower: B (from 50 to 69% control of wheat septoria leaf blotch)
Diplodia maydis (Dm)
  IC90: 2 µg/mL (≈ 3.29 µM)
Botrtyis cinerea (Bc)
  IC90: ≥ 0.4 µg/mL
[6]
  IC90: 2 µg/mL (≈ 3.29 µM)

## COc1ccc(F)cc1[C@H](Cn1c(=O)n([C@H](C)C(=O)NC2CCC2)c(=O)c2c(C)c(-n3cccn3)sc21)OCCC#N [Compound I-308, (R)-2-(1-((R)-2-(2-cyanoethoxy)-2-(5-fluoro-2-methoxyphenyl)ethyl)-5-methyl-2,4-dioxo-6-(1H-pyrazol-1-yl)-1,4-dihydrothieno[2,3-d]pyrimidin-3 (2H)-yl)-N-cyclobutylpropanamide]
Puccinia triticina
  Wheat Leaf Rust Control at a compound concentration of 10 ppm or lower: AA (≥85% control of wheat leaf rust)
Phakopsora pachyrhizi
  Asian Soybean Rust Control at a compound concentration of 25 ppm or lower: C (from 25 to 49% control of Asian soybean rust)
[1]
  Barley Powdery Mildew Control at a compound concentration of 10 ppm or lower: AA (≥85% control of barley powdery mildew)
Sphaerotheca fuliginea
  Cucumber Powdery Mildew Control at a compound concentration of 10 ppm or lower: AA (≥85% control of cucumber powdery mildew)
Fusarium graminearum
  Wheat Fusarium Head Blight Control at a compound concentration of 25 ppm or lower: C (from 25 to 49% control of wheat fusarium head blight)
[2]
  IC90: 0.4 µg/mL (≈ 0.673 µM)
[3]
  IC90: 2 µg/mL (≈ 3.36 µM)
[4]
  IC90: 50 µg/mL (≈ 84.1 µM)
Rhizoctonia solani (Rs)
  IC90: 0.08 µg/mL (≈ 0.135 µM)
Septoria tritici (St)
  IC90: > 50 µg/mL
[5]
  Septoria Leaf Blotch Control at a compound concentration of 25 ppm or lower: AA (≥85% control of wheat septoria leaf blotch)
Diplodia maydis (Dm)
  IC90: 2 µg/mL (≈ 3.36 µM)
Botrtyis cinerea (Bc)
  IC90: 0.4 µg/mL (≈ 0.673 µM)
[6]
  IC90: 2 µg/mL (≈ 3.36 µM)

## COc1ccccc1[C@@H](O)Cn1c(=O)n(C(C)(C)C(=O)NC(C)C)c(=O)c2c(C)c(-n3nccn3)sc21 [Compound I-316, (R)-2-(1-(2-hydroxy-2-(2-methoxyphenyl)ethyl)-5-methyl-2,4-dioxo-6-(2H-1,2,3-triazol-2-yl)-1,4-dihydrothieno[2,3-d]pyrimidin-3 (2H)-yl)-N-isopropyl-2-methylpropanamide]
Puccinia triticina
  Wheat Leaf Rust Control at a compound concentration of 10 ppm or lower: AA (≥85% control of wheat leaf rust)
Phakopsora pachyrhizi
  Asian Soybean Rust Control at a compound concentration of 25 ppm or lower: A (from 70% to 84% control of Asian soybean rust)
[1]
  Barley Powdery Mildew Control at a compound concentration of 10 ppm or lower: AA (≥85% control of barley powdery mildew)
Sphaerotheca fuliginea
  Cucumber Powdery Mildew Control at a compound concentration of 10 ppm or lower: AA (≥85% control of cucumber powdery mildew)
Fusarium graminearum
  Wheat Fusarium Head Blight Control at a compound concentration of 25 ppm or lower: C (from 25 to 49% control of wheat fusarium head blight)
[2]
  IC90: 0.08 µg/mL (≈ 0.152 µM)
[3]
  IC90: 0.08 µg/mL (≈ 0.152 µM)
[4]
  IC90: ≥ 10 µg/mL
Rhizoctonia solani (Rs)
  IC90: 0.08 µg/mL (≈ 0.152 µM)
Septoria tritici (St)
  IC90: > 50 µg/mL
[5]
  Septoria Leaf Blotch Control at a compound concentration of 25 ppm or lower: A (from 70% to 84% control of wheat septoria leaf blotch)
Diplodia maydis (Dm)
  IC90: 2 µg/mL (≈ 3.8 µM)
Botrtyis cinerea (Bc)
  IC90: 0.4 µg/mL (≈ 0.76 µM)
[6]
  IC90: 2 µg/mL (≈ 3.8 µM)
